Measurements from patent publication US7419812B2, “Sequences encoding PhzO and methods” (The United States of America as represented by the …, priority 2000, dated 2008).
Several values for one entry are separate records, joined by “and”; a condition that tells them apart may be missing. Identical values can stand only once.

Assay: Spontaneous conversion (decarboxylation) of synthetic 2-OH-PCA to 2-OH-PHZ in phosphate buffer, RP-HPLC
Format: physicochemical
Description: Since phenazine-producing Pseudomonas spp. often produce mixtures of phenazine compounds, a generalized HPLC protocol for detection of these metabolites was developed. The protocol utilized a NOVA-PAK C18 reverse-phase Radial-PAK cartridge (4 μm, 8×100 mm) (Waters Corp., Milford, Mass.), and solvent conditions consisting of a 2-min initial wash with 35% ACN/0.1% TFA in H2O followed by a 25-min linear gradient to 100% ACN/0.1% TFA at a flow rate of 1.0 ml/min. The Waters HPLC system included a 710B WISP, 510 pumps, and a 680 automated gradient controller with a 990 photodiode array detector (Waters Corp.). Phenazine compounds were identified by retention time and ultraviolet spectrum. Standards included compounds purified from well-characterized strains (Mavrodi et al, 1998, supra; Pierson and Thomashow, 1992, supra) and chemically-synthesized compounds (PCA, 2-OH-PCA, and 2-OH-PHZ) obtained from Colour Your Enzyme (Bath, Ontario, Canada). […] 2-OHPHZ, which is formed by spontaneous decarboxylation of 2-OH-PCA (see below), was therefore used as an indicator of 2-hydroxyphenazine synthesis and when necessary, the presence of 2-OH-PCA in samples containing PCA was determined by peak purity and spectral analyses using the Waters 991 photodiode array (Waters Corp.).
Expression and Functional Analysis of PhzO. The phzO gene from P. aureofaciens 30-84 was cloned in pUCP26 under the control of the lac promoter and expressed in E. coli JM109. Cells from induced cultures expressing PhzO produced a unique band of approximately 55 kDa on SDS-PAGE gels, in good agreement with the size predicted by nucleotide sequence analysis. Induced cultures of E. coli expressing PhzO converted PCA (0.3 or 0.5 mg/ml in 5% NaHCO3) to 2-OH-PCA and 2-OH-PHZ within 3 h, whereas no such conversion occurred in control cultures harboring only pUCP26 (FIG. 2). […] To determine whether PhzO is responsible for this reaction in P. aureofaciens 30-84, a tetracycline resistance gene was inserted into phzO and introduced in the genome by homologous recombination. […]

O=C(O)c1c(O)ccc2nc3ccccc3nc12 [2-OH-PCA, 2-hydroxyphenazine-1-carboxylic acid]
2-OH-PHZ as share of the total phenazine present (0.1 M sodium phosphate buffer pH 4.0, 18 h): 0.2% | 2-OH-PCA initially present converted to 2-OH-PHZ (0.1 M sodium phosphate buffer pH 6.0, 18 h): 33% and 33.3% | 2-OH-PCA initially present converted to 2-OH-PHZ (0.1 M sodium phosphate buffer pH 8.0, 18 h): 62% and 64%
